Results as given in ChEMBL document CHEMBL3351946, “Design and synthesis of potent antitumor water-soluble phenyl N-mustard-benzenealkylamide conjugates via a bioisostere approach” (Eur J Med Chem, 2014).
Activity calls are given as the source filed them. The rule behind the calls is not given here.

Assays:
Mus musculus [1] = test: Toxicity in nude mouse xenografted with human H460 cells assessed as body weight loss at 30 mg/kg,iv qd administered for 6 days measured on day 37 relative to control; format: organism-based; design: dose 30 mg/kg; settings: in vivo, 144 h
[2] = Cytotoxicity against human HCT116 cells assessed as growth inhibition after 72 hrs by Alamar Blue assay; format: functional, cell-based; settings: HCT-116, 72 h
[3] = Antitumor activity against human PC3 cells xenografted in nude mouse assessed as tumor growth inhibition at 40 mg/kg,iv administered every 2 days for 5 doses measured on day 38 relative to control; format: functional; settings: PC-3, iv, read-out: TGI
NCI-H460 = test: Antitumor activity against human H460 cells xenografted in nude mouse assessed as survival at 30 mg/kg,iv qd administered for 6 days; format: functional, organism-based; design: dose 30 mg/kg
Mus musculus [4] = test: Toxicity in nude mouse xenografted with human H460 cells assessed as body weight loss at 30 mg/kg,iv qd administered for 6 days measured on day 15 relative to control; format: organism-based; design: dose 30 mg/kg; settings: in vivo, 144 h
[5] = Antitumor activity against human HCT116 cells xenografted in nude mouse assessed as tumor growth inhibition at 30 mg/kg,iv qd administered for 6 days measured on day 15 relative to control; format: functional, HCT-116
[6] = Cytotoxicity against human PC3 cells assessed as growth inhibition after 72 hrs by Alamar Blue assay; format: functional, cell-based; settings: PC-3, 72 h
HCT-116 = test: Antitumor activity against human HCT116 cells xenografted in nude mouse assessed as survival at 30 mg/kg,iv qd administered for 6 days; format: functional, organism-based; design: dose 30 mg/kg
Mus musculus [7] = test: Toxicity in nude mouse xenografted with human PC3 cells assessed as body weight loss at 40 mg/kg,iv administered every 2 days for 5 doses measured on day 13 relative to control; format: organism-based, PC-3; design: dose 40 mg/kg; settings: in vivo, 48 h
Mus musculus [8] = test: Toxicity in nude mouse xenografted with human HCT116 cells assessed as body weight loss at 30 mg/kg,iv qd administered for 6 days measured on day 13 relative to control; format: organism-based, HCT-116; design: dose 30 mg/kg; settings: in vivo, 144 h
[9] = Antitumor activity against human H460 cells xenografted in nude mouse assessed as tumor growth inhibition at 30 mg/kg,iv qd administered for 6 days measured on day 37 relative to control; format: functional; settings: NCI-H460, iv, read-out: TGI
Mus musculus [10] = test: Toxicity in nude mouse xenografted with human HCT116 cells assessed as change in body weight at 30 mg/kg,iv qd administered for 6 days measured on day 31 relative to control; format: organism-based, HCT-116; design: dose 30 mg/kg; settings: in vivo, 144 h
CCRF-CEM [11] = test: Cytotoxicity against vinblastine-resistant human CCRF-CEM cells assessed as growth inhibition after 72 hrs by Alamar Blue assay; format: functional, cell-based
[12] = Cytotoxicity against human H1299 cells assessed as growth inhibition after 72 hrs by Alamar Blue assay; format: functional, cell-based; settings: NCI-H1299, 72 h
[13] = Acute toxicity in iv dosed mouse administered for 14 days; format: organism-based; settings: in vivo
[14] = Toxicity in mouse; format: organism-based; settings: in vivo
[15] = Antitumor activity against human H460 cells xenografted in nude mouse assessed as tumor growth inhibition at 30 mg/kg,iv qd administered for 6 days measured on day 15 relative to control; format: functional, NCI-H460
[16] = Cytotoxicity against human H460 cells assessed as growth inhibition after 72 hrs by Alamar Blue assay; format: functional, cell-based; settings: NCI-H460, 72 h
Mus musculus [17] = test: Toxicity in nude mouse xenografted with human PC3 cells assessed as change in body weight at 40 mg/kg,iv administered every 2 days for 5 doses measured on day 38 relative to control; format: organism-based, PC-3; design: dose 40 mg/kg; settings: in vivo, 48 h
[18] = Antitumor activity against human HCT116 cells xenografted in nude mouse assessed as tumor growth inhibition at 30 mg/kg,iv qd administered for 6 days measured on day 31 relative to control; format: functional; settings: HCT-116, iv, read-out: TGI
CCRF-CEM [19] = test: Resistance factor, ratio of IC50 for vinblastine-resistant human CCRF-CEM cells to IC50 for human CCRF-CEM cells; format: functional
[20] = Antitumor activity against human PC3 cells xenografted in nude mouse assessed as tumor growth inhibition at 40 mg/kg,iv administered every 2 days for 5 doses measured on day 28 to 31 relative to control; format: functional, PC-3
[21] = Cytotoxicity against human DLD1 cells assessed as growth inhibition after 72 hrs by Alamar Blue assay; format: functional, cell-based; settings: DLD-1, 72 h
Mus musculus [22] = test: Toxicity in nude mouse xenografted with human HCT116 cells assessed as change in body weight at 30 mg/kg,iv qd administered for 6 days measured on day 30 relative to control; format: organism-based, HCT-116; design: dose 30 mg/kg; settings: in vivo, 144 h
[23] = Induction of pEGFP-N1 DNA (unknown origin) interstand crosslinking after 2 hrs by alkaline agarose gel shift assay
[24] = Antitumor activity against human HCT116 cells xenografted in nude mouse assessed as tumor growth inhibition at 30 mg/kg,iv qd administered for 6 days measured on day 30 relative to control; format: functional; settings: HCT-116, iv, read-out: TGI
[25] = Antitumor activity against human HCT116 cells xenografted in nude mouse assessed as tumor growth inhibition at 30 mg/kg,iv qd administered for 6 days measured on day 13 relative to control; format: functional, HCT-116
CCRF-CEM [26] = test: Cytotoxicity against human CCRF-CEM cells assessed as growth inhibition after 72 hrs by Alamar Blue assay; format: functional, cell-based
[27] = Cytotoxicity against human H3347 cells assessed as growth inhibition after 72 hrs by Alamar Blue assay; format: functional, cell-based; settings: H3347, 72 h
HT-29 = test: Cytotoxicity against human HT-29 cells assessed as growth inhibition after 72 hrs by Alamar Blue assay; format: functional, cell-based; settings: HT-29, 72 h
[28] = Antitumor activity against human H3347 cells xenografted in nude mouse assessed as tumor growth inhibition at 30 mg/kg,iv qd administered for 6 days measured on day 31 relative to control; format: functional; settings: read-out: TGI
Mus musculus [29] = test: Toxicity in nude mouse xenografted with human H3347 cells assessed as body weight loss at 30 mg/kg,iv qd administered for 6 days; format: organism-based; design: dose 30 mg/kg; settings: in vivo, 144 h
Mus musculus [30] = test: Toxicity in nude mouse xenografted with human H3347 cells assessed as change in body weight at 30 mg/kg,iv qd administered for 6 days measured on day 31 relative to control; format: organism-based; design: dose 30 mg/kg; settings: in vivo, 144 h
H3347 = test: Antitumor activity against human H3347 cells xenografted in nude mouse assessed as survival at 30 mg/kg,iv qd administered for 6 days; format: functional, organism-based; design: dose 30 mg/kg
[31] = Antitumor activity against human H3347 cells xenografted in nude mouse assessed as tumor growth inhibition at 30 mg/kg,iv qd administered for 6 days measured on day 16 relative to control; format: functional

Row | SMILES | IC50 [2] [µM] | %max [5] [%] | IC50 [6] [µM] | Activity (HCT-116) | body weight change relative to control (Mus musculus [8]) [%] | Activity (Mus musculus [10]) [%] | IC50 (CCRF-CEM [11]) [µM] | IC50 [12] [µM] | IC50 [16] [µM] | inhibition in vivo at 30 mg/kg [18] [%] | Ratio IC50 (CCRF-CEM [19]) | IC50 [21] [µM] | IC50 [27] [µM] | IC50 (HT-29) [µM] | further results
1 | CN(C)CCNC(=O)c1cccc(NC(=O)Nc2ccc(N(CCCl)CCCl)cc2)c1 | 4.85 | 81 | 17.6 | Active | -7 | 0 | 1.05 | 14.8 | 38.3 | 79 | 0.85 | – | – | – | Activity (Mus musculus [1]): -6%; inhibition in vivo at 40 mg/kg [3]: 89%; Activity (NCI-H460): Active; %max (Mus musculus [4]): -16%; %max (Mus musculus [7]): -16%; inhibition in vivo at 30 mg/kg [9]: 8%; LD50 at 336 h [13]: 76 mg/kg; MTD [14]: 30 mg/kg; %max [15]: 17%; Activity (Mus musculus [17]): -2%; %max [20]: 94%
2 | CN(C)CC(=O)Nc1ccc(NC(=O)Nc2ccc(N(CCCl)CCCl)cc2)cc1 | 0.85 | – | 7.33 | Active | -3 | – | 1.34 | 5.36 | 1.21 | – | 4.62 | 5.76 | 1.53 | 20.1 | Activity (Mus musculus [22]): 3%; Activity [23]: Dose-dependent effect; inhibition in vivo at 30 mg/kg [24]: 51%; %max [25]: 72%; IC50 (CCRF-CEM [26]): 0.29 µM
3 | CCc1c2c(nc3ccc(OC(=O)N4CCC(N5CCCCC5)CC4)cc13)-c1cc3c(c(=O)n1C2)COC(=O)[C@]3(O)CC [IRINOTECAN] | – | 92 | – | Active | -3 | 8 | – | – | – | 85 | – | 25.1 | 7.53 | 82.8 | inhibition in vivo at 30 mg/kg [28]: 90%; %max (Mus musculus [29]): 0%; Activity (Mus musculus [30]): 8%; Activity (H3347): Active; %max [31]: 90%
